In brackets after ≈: the same amount, converted by molar mass. Activity calls are given as the source filed them. No cut-off for these calls is given here.
What was measured:
[1] = Selectivity index, ratio of compound concentration showing <20 to <30% hemolysis in mouse RBC to MIC for fluconazole/ITC-resistant Candida albicans ATCC MYA-1237; assay type: toxicity; conditions: mouse red blood cells (RBC), read-out: Selectivity Index
[2] = Selectivity index, ratio of CC50 for human A549 cells to MIC for fluconazole/ITC-resistant Candida albicans ATCC 64124; assay type: toxicity; conditions: read-out: Selectivity Index
[3] = Selectivity index, ratio of compound concentration showing <20 to <30% hemolysis in mouse RBC to MIC for Aspergillus nidulans ATCC 38163; assay type: toxicity; conditions: mouse red blood cells (RBC), read-out: Selectivity Index
[4] = Hemolytic activity in mouse RBC at […] ug/ml after 1 hr relative to control; assay type: ADME, cell-based, Erythrocyte; conditions: red blood cells (erythrocytes), read-out: Activity
[5] = Selectivity index, ratio of CC50 for human A549 cells to MIC for Aspergillus terreus ATCC MYA-3633; assay type: toxicity; conditions: read-out: Selectivity Index
[6] = Hemolytic activity in mouse RBC at 31.3 ug/ml after 1 hr relative to control; assay type: ADME, cell-based, Erythrocyte; conditions: red blood cells (erythrocytes), read-out: Activity
[7] = test system: Pichia kudriavzevii; experiment: Antifungal activity against Candida krusei ATCC 6258 measured after 48 hrs by CLSI M27-A3 protocol based method; assay type: functional; conditions: ATCC 6258, 48 h
[8] = Selectivity index, ratio of compound concentration showing <20 to <30% hemolysis in mouse RBC to MIC for Candida krusei ATCC 6258; assay type: toxicity; conditions: mouse red blood cells (RBC), read-out: Selectivity Index
[9] = Selectivity index, ratio of compound concentration showing <20 to <30% hemolysis in mouse RBC to MIC for fluconazole/ITC-susceptible Candida albicans ATCC MYA-2310; assay type: toxicity; conditions: mouse red blood cells (RBC), read-out: Selectivity Index
[10] = Selectivity index, ratio of CC50 for human A549 cells to MIC for Candida parapsilosis ATCC 22019; assay type: toxicity; conditions: read-out: Selectivity Index
[11] = test system: Candida parapsilosis; experiment: Antifungal activity against Candida parapsilosis ATCC 22019 measured after 48 hrs by CLSI M27-A3 protocol based method; assay type: functional; conditions: Lodderomyces parapsilosis, ATCC 22019, 48 h
[12] = test system: Aspergillus terreus; experiment: Antifungal activity against Aspergillus terreus ATCC MYA-3633 measured after 48 hrs by CLSI M38-A2 protocol based method; assay type: functional; conditions: ATCC MYA-3633, 48 h
[13] = test system: Candida albicans; experiment: Antifungal activity against fluconazole/ITC-resistant Candida albicans ATCC 90819 measured after 48 hrs by CLSI M27-A3 protocol based method; assay type: functional; conditions: ATCC 90819, 48 h
[14] = Selectivity index, ratio of CC50 for human A549 cells to MIC for fluconazole/ITC-resistant Candida albicans ATCC 10231; assay type: toxicity; conditions: read-out: Selectivity Index
[15] = Selectivity index, ratio of CC50 for human A549 cells to MIC for Aspergillus nidulans ATCC 38163; assay type: toxicity; conditions: read-out: Selectivity Index
[16] = Selectivity index, ratio of compound concentration showing <20 to <30% hemolysis in mouse RBC to MIC for Aspergillus flavus ATCC MYA-3631; assay type: toxicity; conditions: mouse red blood cells (RBC), read-out: Selectivity Index
[17] = Selectivity index, ratio of compound concentration showing <20 to <30% hemolysis in mouse RBC to MIC for Candida glabrata ATCC 2001; assay type: toxicity; conditions: mouse red blood cells (RBC), read-out: Selectivity Index
[18] = test system: Candida albicans; experiment: Antifungal activity against fluconazole/ITC-susceptible Candida albicans ATCC MYA-2310 measured after 48 hrs by CLSI M27-A3 protocol based method; assay type: functional; conditions: ATCC MYA-2310, 48 h
[19] = test system: Staphylococcus aureus; experiment: Antibacterial activity against methicillin-resistant Staphylococcus aureus; assay type: functional, organism-based
[20] = test system: Aspergillus flavus; experiment: Antifungal activity against Aspergillus flavus ATCC MYA-3631 measured after 48 hrs by CLSI M38-A2 protocol based method; assay type: functional; conditions: ATCC MYA-3631, 48 h
[21] = Selectivity index, ratio of CC50 for human A549 cells to MIC for fluconazole/ITC-resistant Candida albicans ATCC 90819; assay type: toxicity; conditions: read-out: Selectivity Index
[22] = Selectivity index, ratio of CC50 for human A549 cells to MIC for Candida glabrata ATCC 2001; assay type: toxicity; conditions: read-out: Selectivity Index
[23] = Selectivity index, ratio of CC50 for human A549 cells to MIC for Aspergillus flavus ATCC MYA-3631; assay type: toxicity; conditions: read-out: Selectivity Index
[24] = Selectivity index, ratio of compound concentration showing <20 to <30% hemolysis in mouse RBC to MIC for fluconazole/ITC-resistant Candida albicans ATCC 90819; assay type: toxicity; conditions: red blood cells (erythrocytes), read-out: Selectivity Index
[25] = Selectivity index, ratio of compound concentration showing <20 to <30% hemolysis in mouse RBC to MIC for fluconazole/ITC-susceptible Candida albicans ATCC MYA-2876; assay type: toxicity; conditions: red blood cells (erythrocytes), read-out: Selectivity Index
[26] = test system: Nakaseomyces glabratus; experiment: Antifungal activity against Candida glabrata ATCC 2001 measured after 48 hrs by CLSI M27-A3 protocol based method; assay type: functional; conditions: CBS 138, 48 h
[27] = test system: Aspergillus nidulans; experiment: Antifungal activity against Aspergillus nidulans ATCC 38163 measured after 48 hrs by CLSI M38-A2 protocol based method; assay type: functional; conditions: ATCC 38163, 48 h
[28] = Selectivity index, ratio of compound concentration showing <20 to <30% hemolysis in mouse RBC to MIC for fluconazole/ITC-resistant Candida albicans ATCC 64124; assay type: toxicity; conditions: red blood cells (erythrocytes), read-out: Selectivity Index
[29] = Hemolytic activity in mouse RBC at 7.8 ug/ml after 1 hr relative to control; assay type: ADME, cell-based, Erythrocyte; conditions: red blood cells (erythrocytes), read-out: Activity
[30] = test system: A549; experiment: Cytotoxicity against human A549 cells after 24 hrs by resazurin based assay; assay type: cell-based; conditions: a549, 24 h
[31] = test system: Candida albicans; experiment: Antifungal activity against fluconazole/ITC-resistant Candida albicans ATCC 64124 measured after 48 hrs by CLSI M27-A3 protocol based method; assay type: functional; conditions: ATCC 64124, 48 h
[32] = test system: Candida albicans; experiment: Antifungal activity against fluconazole/ITC-resistant Candida albicans ATCC MYA-1237 measured after 48 hrs by CLSI M27-A3 protocol based method; assay type: functional; conditions: ATCC MYA-1237, 48 h
[33] = test system: Listeria monocytogenes; experiment: Antibacterial activity against Listeria monocytogenes; assay type: functional, organism-based
[34] = test system: Candida albicans; experiment: Antifungal activity against fluconazole/ITC-resistant Candida albicans ATCC 10231 measured after 48 hrs by CLSI M27-A3 protocol based method; assay type: functional; conditions: ATCC 10231, 48 h
[35] = Hemolytic activity in mouse RBC at 1.95 ug/ml after 1 hr relative to control; assay type: ADME, cell-based, Erythrocyte; conditions: red blood cells (erythrocytes), read-out: Activity
[36] = Hemolytic activity in mouse RBC at 3.9 ug/ml after 1 hr relative to control; assay type: ADME, cell-based, Erythrocyte; conditions: red blood cells (erythrocytes), read-out: Activity
[37] = Selectivity index, ratio of CC50 for human A549 cells to MIC for fluconazole/ITC-resistant Candida albicans ATCC MYA-1237; assay type: toxicity; conditions: read-out: Selectivity Index
[38] = Selectivity index, ratio of compound concentration showing <20 to <30% hemolysis in mouse RBC to MIC for fluconazole/ITC-resistant Candida albicans ATCC MYA-1003; assay type: toxicity; conditions: mouse red blood cells (RBC), read-out: Selectivity Index
[39] = Selectivity index, ratio of compound concentration showing <20 to <30% hemolysis in mouse RBC to MIC for fluconazole/ITC-resistant Candida albicans ATCC 10231; assay type: toxicity; conditions: red blood cells (erythrocytes), read-out: Selectivity Index
[40] = Selectivity index, ratio of compound concentration showing <20 to <30% hemolysis in mouse RBC to MIC for Aspergillus terreus ATCC MYA-3633; assay type: toxicity; conditions: mouse red blood cells (RBC), read-out: Selectivity Index
[41] = Hemolytic activity in mouse RBC at 62.5 ug/ml after 1 hr relative to control; assay type: ADME, cell-based, Erythrocyte; conditions: red blood cells (erythrocytes), read-out: Activity
[42] = Selectivity index, ratio of CC50 for human A549 cells to MIC for fluconazole/ITC-resistant Candida albicans ATCC MYA-1003; assay type: toxicity; conditions: read-out: Selectivity Index
[43] = molecular target: Voltage-gated inwardly rectifying potassium channel KCNH2 (Homo sapiens, UniProt Q12809); experiment: Inhibition of [3H]-dofetilide binding to human ERG expressed in HEK293 cell membranes measured after 1 hr by liquid scintillation counting method
Chain of Voltage-gated inwardly rectifying potassium channel KCNH2 (Q12809 whole entry): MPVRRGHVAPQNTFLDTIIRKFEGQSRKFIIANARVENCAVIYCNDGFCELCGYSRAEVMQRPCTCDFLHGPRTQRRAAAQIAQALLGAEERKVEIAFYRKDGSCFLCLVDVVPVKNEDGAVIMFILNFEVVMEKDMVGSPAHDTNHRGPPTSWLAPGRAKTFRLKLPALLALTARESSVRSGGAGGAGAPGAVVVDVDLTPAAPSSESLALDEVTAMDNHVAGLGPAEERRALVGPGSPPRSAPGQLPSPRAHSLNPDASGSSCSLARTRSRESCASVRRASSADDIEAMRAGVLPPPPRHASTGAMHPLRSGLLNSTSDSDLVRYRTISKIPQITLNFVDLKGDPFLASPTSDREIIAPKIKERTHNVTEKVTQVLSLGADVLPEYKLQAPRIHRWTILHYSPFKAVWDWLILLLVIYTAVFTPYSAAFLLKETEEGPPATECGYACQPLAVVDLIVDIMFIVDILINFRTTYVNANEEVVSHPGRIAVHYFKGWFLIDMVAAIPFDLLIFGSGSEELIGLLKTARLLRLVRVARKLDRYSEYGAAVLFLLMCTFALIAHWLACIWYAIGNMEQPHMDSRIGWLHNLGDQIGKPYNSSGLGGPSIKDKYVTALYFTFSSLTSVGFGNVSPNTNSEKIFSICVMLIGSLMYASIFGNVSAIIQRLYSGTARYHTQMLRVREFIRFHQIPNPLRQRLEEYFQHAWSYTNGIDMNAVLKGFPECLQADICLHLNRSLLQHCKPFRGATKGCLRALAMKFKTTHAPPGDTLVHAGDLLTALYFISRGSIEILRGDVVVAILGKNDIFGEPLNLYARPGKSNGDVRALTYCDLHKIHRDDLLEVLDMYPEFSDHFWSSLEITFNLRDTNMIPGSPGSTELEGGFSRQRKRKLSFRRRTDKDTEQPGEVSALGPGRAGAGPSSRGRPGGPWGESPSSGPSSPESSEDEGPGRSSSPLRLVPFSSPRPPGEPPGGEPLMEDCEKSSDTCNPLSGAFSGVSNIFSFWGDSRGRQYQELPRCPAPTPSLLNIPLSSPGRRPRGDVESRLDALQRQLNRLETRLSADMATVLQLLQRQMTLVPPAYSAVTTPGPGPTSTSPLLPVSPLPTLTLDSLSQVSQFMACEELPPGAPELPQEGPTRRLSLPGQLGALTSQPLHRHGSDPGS

[44] = test system: Candida albicans; experiment: Antifungal activity against fluconazole/ITC-resistant Candida albicans ATCC MYA-1003 measured after 48 hrs by CLSI M27-A3 protocol based method; assay type: functional; conditions: ATCC MYA-1003, 48 h
[45] = Hemolytic activity in mouse RBC at […] after 1 hr relative to control; assay type: ADME, cell-based, Erythrocyte; conditions: red blood cells (erythrocytes), read-out: Activity; note: tested at 0.48 µg/mL
[46] = test system: Candida albicans; experiment: Antifungal activity against fluconazole/ITC-susceptible Candida albicans ATCC MYA-2876 measured after 48 hrs by CLSI M27-A3 protocol based method; assay type: functional; conditions: ATCC MYA-2876, 48 h
[47] = Selectivity index, ratio of compound concentration showing <20 to <30% hemolysis in mouse RBC to MIC for Candida parapsilosis ATCC 22019; assay type: toxicity; conditions: mouse red blood cells (RBC), read-out: Selectivity Index
[48] = test system: BEAS-2B; experiment: Cytotoxicity against human BEAS2B cells after 24 hrs by resazurin based assay; assay type: cell-based
[49] = test system: Enterococcus; experiment: Antibacterial activity against vancomycin-resistant Enterococcus; assay type: functional, organism-based
[50] = Selectivity index, ratio of CC50 for human A549 cells to MIC for Candida krusei ATCC 6258; assay type: toxicity; conditions: read-out: Selectivity Index
[51] = Selectivity index, ratio of CC50 for human A549 cells to MIC for fluconazole/ITC-susceptible Candida albicans ATCC MYA-2876; assay type: toxicity; conditions: read-out: Selectivity Index
[52] = Selectivity index, ratio of CC50 for human A549 cells to MIC for fluconazole/ITC-susceptible Candida albicans ATCC MYA-2310; assay type: toxicity; conditions: read-out: Selectivity Index

Fc1ccc(N/N=C/c2ccc(-c3cccc(/C=N/Nc4ccc(F)cc4)c3)cc2)cc1
selectivity ratio [1]: 1 to 32
selectivity ratio [2]: 2
selectivity ratio [3]: 1 to 32
hemolysis at 1 h, 15.6 ug/ml ([4]; at 15.6 µg/mL): 9.9%
hemolysis at 1 h, 0.975 ug/ml [4]: 0%
selectivity ratio [5]: 1
hemolysis at 1 h, 31.3 ug/ml [6]: 14.4%
MIC [7]: > 31.3 µg/mL
selectivity ratio [8]: 1 to 32
selectivity ratio [9]: 1 to 32
selectivity ratio [10]: 1
MIC [11]: 31.3 µg/mL (≈ 73.4 µM)
MIC [12]: > 31.3 µg/mL
MIC [13]: > 31.3 µg/mL
selectivity ratio [14]: 16
selectivity ratio [15]: 8
selectivity ratio [16]: 1 to 32
selectivity ratio [17]: 1 to 32
MIC [18]: 7.8 µg/mL (≈ 18.3 µM)
Activity [19]: inactive
MIC [20]: 15.6 µg/mL (≈ 36.6 µM)
selectivity ratio [21]: 1
selectivity ratio [22]: 1
selectivity ratio [23]: 2
selectivity ratio [24]: 1 to 32
selectivity ratio [25]: 1 to 32
MIC [26]: > 31.3 µg/mL
MIC [27]: 3.9 µg/mL (≈ 9.14 µM)
selectivity ratio [28]: 1 to 32
hemolysis at 1 h, 7.8 ug/ml [29]: 9.5%
CC50 [30]: > 31 µg/mL
MIC [31]: 15.6 µg/mL (≈ 36.6 µM)
MIC [32]: 15.6 µg/mL (≈ 36.6 µM)
Activity [33]: inactive
MIC [34]: 1.95 to 3.9 µg/mL (≈ 4.57 to 9.14 µM)
hemolysis at 1 h, 1.95 ug/ml [35]: 6%
hemolysis at 1 h, 3.9 ug/ml [36]: 4.3%
selectivity ratio [37]: 2
selectivity ratio [38]: 1 to 32
selectivity ratio [39]: 1 to 32
selectivity ratio [40]: 1 to 32
hemolysis at 1 h, 62.5 ug/ml [41]: 26.1%
selectivity ratio [42]: 8
IC50 [43]: > 30 µM
MIC [44]: 3.9 µg/mL (≈ 9.14 µM)
hemolysis at 1 h, […] [45]: 0.1%
MIC [46]: 7.8 µg/mL (≈ 18.3 µM)
selectivity ratio [47]: 1 to 32
CC50 [48]: > 31 µg/mL
Activity [49]: inactive
selectivity ratio [50]: 1
selectivity ratio [51]: 4
selectivity ratio [52]: 4

Reference: ChEMBL document CHEMBL4411307, “N,N'-diaryl-bishydrazones in a biphenyl platform: Broad spectrum antifungal agents” (Eur J Med Chem, 2019)
